EP0414533A1, “Use of iodopropargyl esters of alpha-amino acid derivatives as antimicrobial agents” (ROHM AND HAAS COMPANY, priority 1989, dated 1991)
In brackets after ≈: the same amount, converted by molar mass. Where two headings read alike, the source gives them in different places.

Tests used:
UST = test: In-vitro plant fungicide test; format: cell-based; settings: Table IVb, read-out: % Control at (ppm) indicated UST; for inhibition of growth at 0.2 ppm: .2 ppm; for inhibition of growth at 0.4 ppm: .4 ppm; for inhibition of growth at 0.8 ppm: .8 ppm
7 FUNGI = test: Microbicides broad spectrum secondary test against 7 fungi (Table V); format: cell-based; set-up: key: 1= no growth; 0= growth of the indicated fungi at dose indicated in ppm; settings: Mycophile agar, pH 5.0; for ANIG growth: Aspergillus niger; for APUL growth: Aureobasidium pullulans; for CRES growth: Cladosporium resinae; for GTRA growth: Gloeophyllum trabeum; for PFUN growth: Penicillium funiculosum; for RRUB growth: Rhodotorula rubra; for SSER growth: Sacharomyces cerevisiae
Protocol: In the case of fungi, the spores are harvested by pipetting water onto the slant and dislodging the spores with a sterile loop. The cell/spore suspension is standardized by controlling incubation time, temperature, and the volume of the diluent. The suspension is then used to inoculate the vessels containing the broth compound. […] The results of the minimum inhibitory concentration (MIC) tests of compounds of this invention are shown in Tables IIIa IIIb, IIIc, V, VI, VII, and VIII against the microorganisms shown in Table IX. [table]

Rhizoctonia solani (RHI) = test: In-vitro plant fungicide test; format: cell-based; settings: Rhizoctonia solani; for inhibition of growth at 0.2 ppm: .2 ppm; for inhibition of growth at 0.4 ppm: .4 ppm; for inhibition of growth at 0.8 ppm: .8 ppm
[1] = system: Cochliobolus sativus (HEL); test: In-vitro plant fungicide test; format: cell-based; settings: Bipolaris sorokiniana; for inhibition of growth at 0.2 ppm: .2 ppm; for inhibition of growth at 0.4 ppm: .4 ppm; for inhibition of growth at 0.8 ppm: .8 ppm
[2] = system: Xanthomonas campestris (XAN); test: In-vitro plant fungicide test; format: cell-based; set-up: inhibition of growth: concentration or dose not given beside the values; settings: Xanthomonas campestris
Fusarium roseum (FUS) = test: In-vitro plant fungicide test; format: cell-based; settings: Fusarium sambucinum; for inhibition of growth at 1.5 ppm: read-out: % Control at (ppm) indicated FUS, 1.5 ppm; for inhibition of growth at 3 ppm: read-out: % Control at (ppm) indicated FUS, 3 ppm; for inhibition of growth at 6 ppm: read-out: % Control at (ppm) indicated FUS, 6 ppm; for inhibition of growth at 12 ppm: read-out: % Control at (ppm) indicated FUS, 12 ppm; for inhibition of growth at 0.2 ppm: read-out: % Control at (ppm) indicated FUS, .2 ppm; for inhibition of growth at 0.4 ppm: read-out: % Control at (ppm) indicated FUS, .4 ppm; for inhibition of growth at 0.8 ppm: read-out: % Control at (ppm) indicated FUS, .8 ppm
CER = test: In-vitro plant fungicide test; format: cell-based; settings: Table IVb, read-out: % Control at (ppm) indicated CER; for inhibition of growth at 0.2 ppm: .2 ppm; for inhibition of growth at 0.4 ppm: .4 ppm; for inhibition of growth at 0.8 ppm: .8 ppm
[3] = system: Pseudomonas aerugenosa (PSAE); test: Minimum inhibitory concentration (MIC), broth two-fold serial dilution test; settings: Pseudomonas, IIIB, read-out: MIC (G-) PSAE, trypticase soy broth (complex media); Table IIIb
[4] = Table IVb, read-out: % Control at (ppm) indicated RHI
[5] = Table IVa, read-out: % Control at 25 ppm RHI
[6] = Table IVb, read-out: % Control at (ppm) indicated HEL
[7] = Table IVa, *=Phytotoxic, read-out: % Control at 25 ppm HEL
[8] = Table IVa, read-out: % Control at 25 ppm XAN
[9] = Table IVb, read-out: % Control at (ppm) indicated XAN
[10] = read-out: % Control at 25 ppm FUS, 25 ppm, Table IVa, *=Phytotoxic
[11] = read-out: % Control at (ppm) indicated FUS, 25 ppm, Table IVb

CC(C)(C)OC(=O)NCC(=O)OCC#CI [Compound 1, N-t-butoxycarbonylglycine iodopropargyl ester]
inhibition of growth at 1.5 ppm (UST): 100%
inhibition of growth at 3 ppm (UST): 100%
inhibition of growth at 6 ppm (UST): 100%
inhibition of growth at 12 ppm (UST): 100%
inhibition of growth at 25 ppm (UST): 100%
inhibition of growth at 0.2 ppm (UST): 0%
inhibition of growth at 0.4 ppm (UST): 0%
inhibition of growth at 0.8 ppm (UST): 50%
ANIG growth (7 FUNGI; 0.2 PPM): 0
ANIG growth (7 FUNGI; 1 PPM): 0
ANIG growth (7 FUNGI; 5 PPM): 1
ANIG growth (7 FUNGI; 25 PPM): 1
APUL growth (7 FUNGI; 0.2 PPM): 0
APUL growth (7 FUNGI; 1 PPM): 0
APUL growth (7 FUNGI; 5 PPM): 0
APUL growth (7 FUNGI; 25 PPM): 1
CRES growth (7 FUNGI; 0.2 PPM): 0
CRES growth (7 FUNGI; 1 PPM): 0
CRES growth (7 FUNGI; 5 PPM): 0
CRES growth (7 FUNGI; 25 PPM): 1
GTRA growth (7 FUNGI; 0.2 PPM): 0
GTRA growth (7 FUNGI; 1 PPM): 1
GTRA growth (7 FUNGI; 5 PPM): 1
GTRA growth (7 FUNGI; 25 PPM): 1
PFUN growth (7 FUNGI; 0.2 PPM): 0
PFUN growth (7 FUNGI; 1 PPM): 0
PFUN growth (7 FUNGI; 5 PPM): 0
PFUN growth (7 FUNGI; 25 PPM): 1
RRUB growth (7 FUNGI; 0.2 PPM): 0
RRUB growth (7 FUNGI; 1 PPM): 0
RRUB growth (7 FUNGI; 5 PPM): 0
RRUB growth (7 FUNGI; 25 PPM): 1
SSER growth (7 FUNGI; 0.2 PPM): 0
SSER growth (7 FUNGI; 1 PPM): 0
SSER growth (7 FUNGI; 5 PPM): 0
SSER growth (7 FUNGI; 25 PPM): 1
inhibition of growth at 1.5 ppm (Rhizoctonia solani (RHI); [4]): 100%
inhibition of growth at 6 ppm (Rhizoctonia solani (RHI); [4]): 100%
inhibition of growth at 25 ppm (Rhizoctonia solani (RHI); [5]): 100%
inhibition of growth at 25 ppm (Rhizoctonia solani (RHI); [4]): 100%
inhibition of growth at 0.2 ppm (Rhizoctonia solani (RHI); [4]): 0%
inhibition of growth at 0.4 ppm (Rhizoctonia solani (RHI); [4]): 75%
inhibition of growth at 0.8 ppm (Rhizoctonia solani (RHI); [4]): 100%
inhibition of growth at 1.5 ppm [1, 6]: 0%
inhibition of growth at 6 ppm [1, 6]: 75%
inhibition of growth at 25 ppm [1, 7]: 100%
inhibition of growth at 25 ppm [1, 6]: 100%
inhibition of growth at 0.2 ppm [1, 6]: 0%
inhibition of growth at 0.4 ppm [1, 6]: 0%
inhibition of growth at 0.8 ppm [1, 6]: 0%
inhibition of growth at 1.5 ppm ([2]; 1.5 ppm, Table IVb, read-out: % Control at (ppm) indicated XAN): 0%
inhibition of growth at 3 ppm ([2]; 3 ppm, Table IVb, read-out: % Control at (ppm) indicated XAN): 0%
inhibition of growth at 6 ppm ([2]; 6 ppm, Table IVb, read-out: % Control at (ppm) indicated XAN): 0%
inhibition of growth at 25 ppm [2, 8]: 0%
inhibition of growth at 25 ppm [2, 9]: 0%
inhibition of growth at 0.2 ppm ([2]; .2 ppm, Table IVb, read-out: % Control at (ppm) indicated XAN): 0%
inhibition of growth at 0.4 ppm ([2]; .4 ppm, Table IVb, read-out: % Control at (ppm) indicated XAN): 0%
inhibition of growth at 0.8 ppm ([2]; .8 ppm, Table IVb, read-out: % Control at (ppm) indicated XAN): 0%
inhibition of growth [2, 9]: 0%
inhibition of growth at 25 ppm (Fusarium roseum (FUS); [10]): 100%
inhibition of growth at 1.5 ppm (Fusarium roseum (FUS); Table IVb): 0%
inhibition of growth at 3 ppm (Fusarium roseum (FUS); Table IVb): 75%
inhibition of growth at 6 ppm (Fusarium roseum (FUS); Table IVb): 100%
inhibition of growth at 12 ppm (Fusarium roseum (FUS); Table IVb): 100%
inhibition of growth at 25 ppm (Fusarium roseum (FUS); [11]): 100%
inhibition of growth at 0.2 ppm (Fusarium roseum (FUS); Table IVb): 0%
inhibition of growth at 0.4 ppm (Fusarium roseum (FUS); Table IVb): 0%
inhibition of growth at 0.8 ppm (Fusarium roseum (FUS); Table IVb): 0%
inhibition of growth at 1.5 ppm (CER): 0%
inhibition of growth at 6 ppm (CER; 6 ppm): 100%
inhibition of growth at 25 ppm (CER): 100%
inhibition of growth at 0.2 ppm (CER): 0%
inhibition of growth at 0.4 ppm (CER): 0%
inhibition of growth at 0.8 ppm (CER): 0%

O=C(CNC(=O)c1ccccc1)OCC#CI [Compound 29, N-benzoylglycine iodopropargyl ester]
ANIG growth (7 FUNGI; 0.2 PPM): 0
ANIG growth (7 FUNGI; 1 PPM): 0
ANIG growth (7 FUNGI; 5 PPM): 1
ANIG growth (7 FUNGI; 25 PPM): 1
APUL growth (7 FUNGI; 0.2 PPM): 0
APUL growth (7 FUNGI; 1 PPM): 0
APUL growth (7 FUNGI; 5 PPM): 1
APUL growth (7 FUNGI; 25 PPM): 1
CRES growth (7 FUNGI; 0.2 PPM): 0
CRES growth (7 FUNGI; 1 PPM): 0
CRES growth (7 FUNGI; 5 PPM): 1
CRES growth (7 FUNGI; 25 PPM): 1
GTRA growth (7 FUNGI; 0.2 PPM): 1
GTRA growth (7 FUNGI; 1 PPM): 1
GTRA growth (7 FUNGI; 5 PPM): 1
GTRA growth (7 FUNGI; 25 PPM): 1
PFUN growth (7 FUNGI; 0.2 PPM): 0
PFUN growth (7 FUNGI; 1 PPM): 0
PFUN growth (7 FUNGI; 5 PPM): 1
PFUN growth (7 FUNGI; 25 PPM): 1
RRUB growth (7 FUNGI; 0.2 PPM): 0
RRUB growth (7 FUNGI; 1 PPM): 0
RRUB growth (7 FUNGI; 5 PPM): 1
RRUB growth (7 FUNGI; 25 PPM): 1
SSER growth (7 FUNGI; 0.2 PPM): 0
SSER growth (7 FUNGI; 1 PPM): 0
SSER growth (7 FUNGI; 5 PPM): 1
SSER growth (7 FUNGI; 25 PPM): 1
inhibition of growth at 25 ppm (Rhizoctonia solani (RHI); [5]): 100%
inhibition of growth at 25 ppm [1, 7]: 100%
inhibition of growth at 25 ppm [2, 8]: 0%
inhibition of growth at 25 ppm (Fusarium roseum (FUS); [10]): 100%
MIC [3]: 125 µg/mL (≈ 364 µM)

O=C(CN1C(=O)c2ccccc2C1=O)OCC#CI [Compound 30, N-phthaloylglycine iodopropargyl ester]
inhibition of growth at 1.5 ppm (UST): 0%
inhibition of growth at 3 ppm (UST): 0%
inhibition of growth at 6 ppm (UST): 0%
inhibition of growth at 12 ppm (UST): 0%
inhibition of growth at 25 ppm (UST): 0%
inhibition of growth at 0.2 ppm (UST): 0%
inhibition of growth at 0.4 ppm (UST): 0%
inhibition of growth at 0.8 ppm (UST): 0%
inhibition of growth at 1.5 ppm (Rhizoctonia solani (RHI); [4]): 0%
inhibition of growth at 6 ppm (Rhizoctonia solani (RHI); [4]): 100%
inhibition of growth at 25 ppm (Rhizoctonia solani (RHI); [5]): 90%
inhibition of growth at 25 ppm (Rhizoctonia solani (RHI); [4]): 100%
inhibition of growth at 0.2 ppm (Rhizoctonia solani (RHI); [4]): 0%
inhibition of growth at 0.4 ppm (Rhizoctonia solani (RHI); [4]): 0%
inhibition of growth at 0.8 ppm (Rhizoctonia solani (RHI); [4]): 0%
inhibition of growth at 1.5 ppm [1, 6]: 0%
inhibition of growth at 6 ppm [1, 6]: 100%
inhibition of growth at 25 ppm [1, 7]: 100%
inhibition of growth at 25 ppm [1, 6]: 100%
inhibition of growth at 0.2 ppm [1, 6]: 0%
inhibition of growth at 0.4 ppm [1, 6]: 0%
inhibition of growth at 0.8 ppm [1, 6]: 0%
inhibition of growth at 25 ppm [2, 8]: 0%
inhibition of growth at 25 ppm (Fusarium roseum (FUS); [10]): 100%
inhibition of growth at 1.5 ppm (Fusarium roseum (FUS); Table IVb): 0%
inhibition of growth at 3 ppm (Fusarium roseum (FUS); Table IVb): 100%
inhibition of growth at 6 ppm (Fusarium roseum (FUS); Table IVb): 100%
inhibition of growth at 12 ppm (Fusarium roseum (FUS); Table IVb): 100%
inhibition of growth at 25 ppm (Fusarium roseum (FUS); [11]): 100%
inhibition of growth at 0.2 ppm (Fusarium roseum (FUS); Table IVb): 0%
inhibition of growth at 0.4 ppm (Fusarium roseum (FUS); Table IVb): 0%
inhibition of growth at 0.8 ppm (Fusarium roseum (FUS); Table IVb): 0%
inhibition of growth at 1.5 ppm (CER): 0%
inhibition of growth at 25 ppm (CER): 100%
inhibition of growth at 0.2 ppm (CER): 0%
inhibition of growth at 0.4 ppm (CER): 0%
inhibition of growth at 0.8 ppm (CER): 0%
MIC [3]: > 250 µg/mL
